From PMC5653355, “Identification of two immortalized cell lines, ECV304 and bEnd3, for in vitro permeability studies of blood-brain barrier” (PLoS ONE, 2017)

How the values were obtained:
[1] = Permeability (transport study) across bEnd3 monoculture model; conditions: mouse
Method: (§2) For the generation of mono-culture models, ECV304 or bEnd3 cells were seeded on the upper surface of the membrane in Polyester Transwell inserts (0.4 μM pore size, 6.5 mm diameter, 24 well, Costar, Kennebunk, ME, USA) at a density of 5 × 10^4 and 8 × 10^4/cm^2, respectively. […] The culture medium (0.25 ml in the apical compartment and 1 ml in the basolateral compartment to avoid hydrostatic pressure) was replenished every day.
(§3) On day 5~7 after seeding cells, the TEER across cell layers was measured before initiating the transport study by replacing the medium in the apical compartment with tested compounds dissolved in HBSS. […] At indicated time points of 15, 30, 45 and 60 min, the inserts were transferred into new wells containing fresh HBSS to maintain sink conditions. […] Other compounds were analyzed by liquid chromatography tandem mass spectrometer (LC-MS/MS).
(§4) The cleared volume was determined by dividing the compound amount in basolateral compartment by the compound concentration in apical compartment. The slope of the cumulative clearance versus time was calculated by linear regression analysis and denoted as permeability coefficient (PEall) × surface area of the membrane insert (S, 0.33 cm^2). The PEblank of blank inserts was included to calculate the PEcell for cell layers themselves using the following equation: 1/PEcellS = 1/PEallS—1/PEblankS.

[2] = Permeability (transport study) across ECV304 monoculture model; conditions: human
Method: as §2, §3, §4

[3] = system: bEnd3 cell layers; test: Permeability (transport study) across bEnd3 monoculture model
Method: as §2, §3, §4

[4] = system: ECV304 cell layers; test: Permeability (transport study) across ECV304 monoculture model
Method: as §2, §3, §4

[5] = system: ECV304 co-cultured with rat glioma C6 cells; test: Permeability to Lucifer yellow in ECV304 co-culture model with C6 cells; format: in vitro ADME, human; conditions: Lucifer yellow 50 μM
Method: (§1) For the generation of mono-culture models, ECV304 or bEnd3 cells were seeded on the upper surface of the membrane in Polyester Transwell inserts ([…] pore size, 6.5 mm diameter, 24 well, Costar, Kennebunk, ME, USA) at a density of 5 × 10^4 and 8 × 10^4/cm^2, respectively. For the generation of co-culture models, C6 cells were seeded on the lower surface of the membrane at a density of 5 × 10^4/cm^2 and incubated for 2 h to allow cell attachment before the seeding of ECV304 or bEnd3 cells.

[6] = system: bEnd3 co-cultured with rat glioma C6 cells; test: Permeability to Lucifer yellow in bEnd3 co-culture model with C6 cells; format: in vitro ADME, mouse; conditions: Lucifer yellow 50 μM
Method: as §1

[7] = system: ECV304 cell layers; conditions: cited from earlier work

Row | Papp at 60 min [1] | Papp at 60 min [2] | Compound | other results
1 | 62.4 ± 2.7 nm/s | 32.9 ± 1.6 nm/s | C[C@H]1O[C@@H](O[C@H]2[C@@H](O)C[C@H](O[C@H]3[C@@H](O)C[C@H](O[C@H]4CC[C@@]5(C)[C@H](CC[C@@H]6[C@@H]5C[C@@H](O)[C@]5(C)[C@@H](C7=CC(=O)OC7)CC[C@]65O)C4)O[C@@H]3C)O[C@@H]2C)C[C@H](O)[C@@H]1O [Digoxin, digoxin] | 
2 | 297 ± 14.4 nm/s | 284 ± 12.5 nm/s | CC(C)NCC(O)COc1cccc2ccccc12 (stereo not drawn) [Propranolol, propranolol] | permeability ratio of transcellular marker propranolol to paracellular marker Lucifer yellow ([3]; bEnd3 cells, monoculture): 1.2; permeability ratio of transcellular marker propranolol to paracellular marker Lucifer yellow ([4]; ECV304 cells, monoculture): 2.5
3 | 268 ± 6.8 nm/s | 245 ± 16.1 nm/s | C=C[C@H]1C[N@@]2CC[C@H]1C[C@@H]2[C@@H](O)c1ccnc2ccc(OC)cc12 [Quinidine, quinidine] | 
4 | 223 ± 28 nm/s | 124 ± 9.1 nm/s | COC(=O)c1ccccc1-c1c2ccc(=N)cc-2oc2cc(N)ccc12 [R123, Rhodamine 123] | 
5 |  |  | Lucifer yellow | increase of permeability to Lucifer yellow, co-culture with C6 cells versus monoculture [5]: 2.2 fold; increase of permeability to Lucifer yellow, co-culture with C6 cells versus monoculture [6]: 2 fold; permeability of Lucifer yellow in ECV304 monolayer, published before [7]: 104 nm/s; permeability to Lucifer yellow ([3]; bEnd3 monoculture model, Lucifer yellow 50 μM, day 5~7 after seeding, mean ± SD, n = 3): 23.68 ± 1.71 × 10^−6 cm/s; permeability to Lucifer yellow ([4]; ECV304 monoculture model, Lucifer yellow 50 μM, day 5~7 after seeding, mean ± SD, n = 3): 11.17 ± 0.87 × 10^−6 cm/s
